# According to the supplement of paper PMC10307832:
# Tests used:
# Test in all cases: relative viability (nuclei count vs DMSO), 5 days (fraction); higher = more cells survive
# [1] = compound: CC1(C)CNc2cc(NC(=O)c3cccnc3NCc3ccncc3)ccc21 [Motesanib] + CC(=O)Nc1cccc(-n2c(=O)n(C3CC3)c(=O)c3c(Nc4ccc(I)cc4F)n(C)c(=O)c(C)c32)c1 [Trametinib] (partner 0.02 µM)
# In short: (§1)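 Relative viability was taken as the ratio of nuclei in treated wells to nuclei in vehicle wells. Lung cancer cell lines in 1536-well plates received compounds by pin tool one day after seeding, either one drug alone or a fixed anchor-drug dose plus five library-drug doses (not always all listed) in √10 steps. Nuclei were counted on 4× images after 5 days of treatment, and values are medians of duplicate plates.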
# [2] = compound: CC1(C)CNc2cc(NC(=O)c3cccnc3NCc3ccncc3)ccc21 [Motesanib] + CS(=O)(=O)N1CCN(Cc2cc3nc(-c4cccc5[nH]ncc45)nc(N4CCOCC4)c3s2)CC1 [Pictilisib] (partner 1 µM)
# In short: as §1
# [3] = compound: C[C@@]1(C(=O)Nc2ccc(F)nc2)CCCN1c1nc(Nc2cc(C3CC3)n[nH]2)c2cccn2n1 + N=C(N)NC(=N)NCCc1ccccc1 [Phenformin] (partner 250 µM)
# In short: as §1
# [4] = compound: CC1(C)CNc2cc(NC(=O)c3cccnc3NCc3ccncc3)ccc21 [Motesanib] + NC(=O)Nc1cc(-c2cccc(F)c2)sc1C(=O)N[C@H]1CCCNC1 [AZD7762] (partner 0.2 µM)
# In short: as §1
Cell Line,relative viability ([1]; first compound 0.01 µM),relative viability ([1]; first compound 0.03162 µM),relative viability ([1]; first compound 0.1 µM),relative viability ([1]; first compound 0.3162 µM),relative viability ([1]; first compound 1 µM),relative viability ([2]; first compound 0.01 µM),relative viability ([2]; first compound 0.03162 µM),relative viability ([2]; first compound 0.1 µM),relative viability ([2]; first compound 0.3162 µM),relative viability ([2]; first compound 1 µM),relative viability ([3]; first compound 0.04 µM),relative viability ([3]; first compound 0.1265 µM),relative viability ([3]; first compound 0.4 µM),relative viability ([3]; first compound 1.265 µM),relative viability ([4]; first compound 0.01 µM),relative viability ([4]; first compound 0.03162 µM),relative viability ([4]; first compound 0.1 µM),relative viability ([4]; first compound 0.3162 µM),relative viability ([4]; first compound 1 µM)
NCI-H520,0.516,0.561,0.68,0.655,0.627,0.269,0.267,0.345,0.284,0.207,0.819,0.301,0.487,0.416,–,–,–,–,–
SK-LU-1,0.424,0.591,0.476,0.536,0.544,0.494,0.481,0.553,0.628,0.663,0.476,0.396,0.361,0.409,–,–,–,–,–
NCI-H2342,0.933,0.715,0.907,0.77,0.959,–,–,–,–,–,0.574,0.43,0.46,0.44,0.46,0.515,0.571,0.476,0.459
NCI-H1299,–,–,–,–,–,0.59,0.828,0.825,0.845,0.845,–,–,–,–,–,–,–,–,–
NCI-H1650,0.684,0.531,0.636,0.547,0.623,0.592,–,0.516,0.495,0.517,0.411,0.387,0.376,0.193,–,–,–,–,–
NCI-H2009,0.244,0.316,0.273,0.291,0.289,0.734,0.732,0.818,0.827,0.873,0.539,0.493,0.479,0.481,–,–,–,–,–
SW 900,0.855,0.764,0.938,0.683,0.848,–,–,–,–,–,0.566,0.544,0.596,0.461,0.787,0.786,0.552,0.523,0.726
SK-MES-1,0.575,0.587,0.593,0.565,0.617,0.392,0.405,0.403,0.381,0.339,0.699,0.632,0.559,0.635,–,–,–,–,–
NCI-H1648,0.433,–,–,0.566,0.471,–,–,–,–,–,–,–,–,–,0.496,–,–,0.702,0.597
NCI-H522,0.815,0.848,0.823,0.831,0.84,–,–,–,–,–,0.557,0.633,0.59,0.56,0.815,0.721,0.864,1,1
A549,–,–,–,–,–,0.515,0.478,0.504,0.574,0.57,0.131,0.155,0.101,0.281,–,–,–,–,–
NCI-H661,0.485,0.547,0.606,0.547,0.571,0.327,0.35,0.348,0.379,0.43,0.245,0.235,0.233,0.229,–,–,–,–,–
NCI-H1563,–,–,–,–,–,0.65,0.645,0.68,0.64,0.678,0.64,0.671,0.605,0.626,–,–,–,–,–
ABC-1,–,–,–,–,–,0.81,0.962,0.715,0.707,0.76,0.182,0.211,0.216,0.216,0.811,1,0.762,0.904,0.846
